PubChem BioAssay AID1918936 (Molecular Pharmacology Branch, DTP, NCI, 2023)
pIC50: −log10 of the molar value.

Tested on: 349418-098-R-PDC complex spheroid viability
Assay: Anticancer human tumor 349418-098-R-PDC patient-derived lung adenocarcinoma cell line growth inhibition
Conditions: for pIC50: curve of first compound; for viability, T/C: stronger effect = lower value
Text: Multicellular complex tumor spheroid response to LSD1 Inhibitor Iadademstat in combination with a variety of drugs and investigational agents in selected tumor cell lines
The current study was undertaken to assess response to LSD1 inhibitors in combination with standard-of-care drugs and investigational agents in solid tumor complex spheroid models as well as in the K-562 leukemia. Complex spheroids include a stromal component modeled by human endothelial cells (HUVEC) and fibroblasts modeled by human mesenchymal stem cells (MSCs). The concentration ranges selected for each drug and investigational agent were based upon clinically achievable concentrations if the clinical Cmax of the agent was known.
Compounds. The drugs and investigational agents used in this study are listed on Table 1. All of the agents used, including staurosporine (NSC755774) and gemcitabine (NSC613327), were obtained from the Developmental Therapeutics Program, NCI. FDA-approved anticancer drugs are available from the NCI at http://dtp.nci.nih.gov/branches/dscb/oncology_drugset_explanation.html. Drugs and investigational agents were >95% pure by proton nuclear magnetic resonance (NMR) and liquid chromatography/mass spectrometry (LC/MS). Stock solutions were prepared at 400x in DMSO, stored at -70 degrees C, and diluted in fresh medium prior to their use. The final concentration of DMSO in cell culture wells never exceeded 0.25% (v/v). The FDA-approved anticancer drug set is available from the Developmental Therapeutics Program at https://dtp.cancer.gov/organization/dscb/obtaining/available_plates.htm. All drugs and investigational agents were tested over a range starting from a high concentration at or near the clinical Cmax and decreasing in half-log increments. If the clinical Cmax for an agent had not been determined, the highest concentration tested was 10 microM.
Cell Lines. The patient-derived cancer cell (PDC) lines: 292921-168-R-J2-PDC, K24384-001-R-PDC, and 521955-158-R2-J5-PDC pancreatic carcinomas, 556581-035-R-J1 ovarian carcinoma, 324938-238-R-J1-PDC, 855422-203-R-J1-PDC and 883617-216-R-J1-PDC urothelial bladder carcinomas, 743489-274-T-PDC renal cell carcinoma, 138582-R-J1 Merkel cell tumor, K60290-347-R-J1 and K57222-313-R-J1-PDC glioblastomas, 653999-131-R-J2-PDC, LG0703-F948-PDC, and 349418-098-R-PDC non-small cell lung carcinomas, 885512-296-R-J2-PDC, 171881-019-R-J1-PDC breast carcinomas and 186277-243-T-J2-PDC and 233499-124-R-J2-PDC colon carcinomas were obtained from the NCI Patient-Derived Models Repository (PDMR, https://pdmr.cancer.gov). The established cell lines NCI/ADR-RES (RRID:CVCL_14520 and OVCAR-5 (RRID:CVCL_1628) ovarian carcinomas, 786-O (RRID:CVCL_1051) and A498 (RRID:CVCL_A498) renal cell carcinoma, NCI-H211 (ATCC, cat. CRL-5824; RRID:CVCL_1529), NCI-H196 (ATCC, cat. CRL-5823, RRID:CVCL_1509), SW 1271 (ATCC, cat. CRL-2177, RRID:CVCL_1716) and NCI-H1876 (ATCC, cat. CRL-5902, RRID:CVCL_1503) small cell lung carcinomas, MDA-MB-231 (RRID:CVCL_0062) and MDA-MB-468 (RRID:CVCL_0419)breast carcinomas (10-12). Pooled donor human umbilical vein endothelial cells (HUVEC, Lonza, cat. CC-2519) and human mesenchymal stem cells (hMSC, Lonza, cat. PT-2501) were purchased from Lonza (Walkersville, MD).
Cell Culture. All cells were maintained in an incubator at 37 degrees C and 5% CO2 with 95% humidity. The PDC lines were cultured according to standard operating procedures established by the NCI PDMR (https://pdmr.cancer.gov). Briefly all PDCs were thawed and cultured in Matrigel-coated flasks prepared with a working solution of 1X Ham's F-12 nutrient mix, without supplementation (Invitrogen, Waltham, MA, cat. 11765054), 100 U/mL penicillin-streptomycin (Invitrogen, cat. 15140122), and 2.5% Matrigel (Corning Inc., Corning, NY, cat. 354248) for the first three passages. […]

[1] = second compound 0.1 µM, first compound 0.00316 µM
[2] = second compound 0.1 µM, first compound 0.01 µM
[3] = second compound 0.1 µM, first compound 0.0316 µM
[4] = second compound 0.1 µM, first compound 0.1 µM
[5] = second compound 0.316 µM, first compound 0.00316 µM
[6] = second compound 0.316 µM, first compound 0.01 µM
[7] = second compound 0.316 µM, first compound 0.0316 µM
[8] = second compound 0.316 µM, first compound 0.1 µM
[9] = second compound 1 µM, first compound 0.00316 µM
[10] = second compound 1 µM, first compound 0.01 µM
[11] = second compound 1 µM, first compound 0.0316 µM
[12] = second compound 1 µM, first compound 0.1 µM
[13] = second compound 3.16 µM, first compound 0.00316 µM
[14] = second compound 3.16 µM, first compound 0.01 µM
[15] = second compound 3.16 µM, first compound 0.0316 µM
[16] = second compound 3.16 µM, first compound 0.1 µM
[17] = second compound 10 µM, first compound 0.00316 µM
[18] = second compound 10 µM, first compound 0.01 µM
[19] = second compound 10 µM, first compound 0.0316 µM
[20] = second compound 10 µM, first compound 0.1 µM
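Further: spheroids exposed to agents for seven days before readout.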
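Wherever viability, T/C is given: 100% = DMSO vehicle control wells.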

CC[C@@]1(O)C(=O)OCc2c1cc1n(c2=O)Cc2cc3c(CN(C)C)c(O)ccc3nc2-1 + NC1CC1c1ccc(-c2cccc(O)c2)cc1
pIC50 (second compound 0.1 µM): 8.30 | pIC50 (second compound 0.316 µM): 8.31 | pIC50 (second compound 1 µM): 8.32 | pIC50 (second compound 3.16 µM): 8.33 | pIC50 (second compound 10 µM): 8.42 | viability, T/C (second compound 0.1 µM, first compound 0.000316 µM): 115% | viability, T/C (second compound 0.1 µM, first compound 0.001 µM): 108% | viability, T/C [1]: 74.8% | viability, T/C [2]: 11.4% | viability, T/C [3]: 5.55% | viability, T/C [4]: 3.01% | viability, T/C (second compound 0.316 µM, first compound 0.000316 µM): 120% | viability, T/C (second compound 0.316 µM, first compound 0.001 µM): 116% | viability, T/C [5]: 74% | viability, T/C [6]: 9.75% | viability, T/C [7]: 4.91% | viability, T/C [8]: 2.78% | viability, T/C (second compound 1 µM, first compound 0.000316 µM): 118% | viability, T/C (second compound 1 µM, first compound 0.001 µM): 116% | viability, T/C [9]: 72.4% | viability, T/C [10]: 10.1% | viability, T/C [11]: 5.15% | viability, T/C [12]: 2.6% | viability, T/C (second compound 3.16 µM, first compound 0.000316 µM): 122% | viability, T/C (second compound 3.16 µM, first compound 0.001 µM): 112% | viability, T/C [13]: 70.8% | viability, T/C [14]: 10.1% | viability, T/C [15]: 5.39% | viability, T/C [16]: 2.8% | viability, T/C (second compound 10 µM, first compound 0.000316 µM): 91.9% | viability, T/C (second compound 10 µM, first compound 0.001 µM): 90.1% | viability, T/C [17]: 57.8% | viability, T/C [18]: 8.84% | viability, T/C [19]: 5.04% | viability, T/C [20]: 2.95%

COc1cc(C2c3cc4c(cc3C(OC3OC5COC(C)OC5C(O)C3O)C3COC(=O)C23)OCO4)cc(OC)c1O (stereo not given) + NC1CC1c1ccc(-c2cccc(O)c2)cc1
pIC50 (second compound 0.1 µM): 7.21 | pIC50 (second compound 0.316 µM): 7.20 | pIC50 (second compound 1 µM): 7.17 | pIC50 (second compound 3.16 µM): 7.24 | pIC50 (second compound 10 µM): 7.46 | viability, T/C (second compound 0.1 µM, first compound 0.00949 µM): 108% | viability, T/C (second compound 0.1 µM, first compound 0.03 µM): 86.4% | viability, T/C (second compound 0.1 µM, first compound 0.0949 µM): 27.3% | viability, T/C (second compound 0.1 µM, first compound 0.3 µM): 7.24% | viability, T/C (second compound 0.1 µM, first compound 0.949 µM): 3.83% | viability, T/C (second compound 0.1 µM, first compound 3 µM): 3.5% | viability, T/C (second compound 0.316 µM, first compound 0.00949 µM): 114% | viability, T/C (second compound 0.316 µM, first compound 0.03 µM): 89.4% | viability, T/C (second compound 0.316 µM, first compound 0.0949 µM): 27.7% | viability, T/C (second compound 0.316 µM, first compound 0.3 µM): 7.71% | viability, T/C (second compound 0.316 µM, first compound 0.949 µM): 3.95% | viability, T/C (second compound 0.316 µM, first compound 3 µM): 2.97% | viability, T/C (second compound 1 µM, first compound 0.00949 µM): 97.6% | viability, T/C (second compound 1 µM, first compound 0.03 µM): 92.7% | viability, T/C (second compound 1 µM, first compound 0.0949 µM): 31.8% | viability, T/C (second compound 1 µM, first compound 0.3 µM): 6.96% | viability, T/C (second compound 1 µM, first compound 0.949 µM): 3.37% | viability, T/C (second compound 1 µM, first compound 3 µM): 2.89% | viability, T/C (second compound 3.16 µM, first compound 0.00949 µM): 114% | viability, T/C (second compound 3.16 µM, first compound 0.03 µM): 83.5% | viability, T/C (second compound 3.16 µM, first compound 0.0949 µM): 23.5% | viability, T/C (second compound 3.16 µM, first compound 0.3 µM): 7.14% | viability, T/C (second compound 3.16 µM, first compound 0.949 µM): 3.98% | viability, T/C (second compound 3.16 µM, first compound 3 µM): 3.63% | viability, T/C (second compound 10 µM, first compound 0.00949 µM): 95.6% | viability, T/C (second compound 10 µM, first compound 0.03 µM): 55.4% | viability, T/C (second compound 10 µM, first compound 0.0949 µM): 14.7% | viability, T/C (second compound 10 µM, first compound 0.3 µM): 5.55% | viability, T/C (second compound 10 µM, first compound 0.949 µM): 3.81% | viability, T/C (second compound 10 µM, first compound 3 µM): 3.47%

Nc1ncn(C2CC(O)C(CO)O2)c(=O)n1 (stereo not given) + NC1CC1c1ccc(-c2cccc(O)c2)cc1
pIC50 (second compound 0.1 µM): 7.05 | pIC50 (second compound 0.316 µM): 7.04 | pIC50 (second compound 1 µM): 7.05 | pIC50 (second compound 3.16 µM): 7.02 | pIC50 (second compound 10 µM): 7.20 | viability, T/C [1]: 102% | viability, T/C [2]: 99.1% | viability, T/C [3]: 78.3% | viability, T/C [4]: 45.8% | viability, T/C (second compound 0.1 µM, first compound 0.316 µM): 37.3% | viability, T/C (second compound 0.1 µM, first compound 1 µM): 28.2% | viability, T/C [5]: 113% | viability, T/C [6]: 95% | viability, T/C [7]: 88.4% | viability, T/C [8]: 44.2% | viability, T/C (second compound 0.316 µM, first compound 0.316 µM): 32.9% | viability, T/C (second compound 0.316 µM, first compound 1 µM): 27.9% | viability, T/C [9]: 105% | viability, T/C [10]: 105% | viability, T/C [11]: 83.4% | viability, T/C [12]: 45.8% | viability, T/C (second compound 1 µM, first compound 0.316 µM): 32.5% | viability, T/C (second compound 1 µM, first compound 1 µM): 27.1% | viability, T/C [13]: 111% | viability, T/C [14]: 108% | viability, T/C [15]: 85.5% | viability, T/C [16]: 48.4% | viability, T/C (second compound 3.16 µM, first compound 0.316 µM): 30.6% | viability, T/C (second compound 3.16 µM, first compound 1 µM): 25.1% | viability, T/C [17]: 92.4% | viability, T/C [18]: 78.3% | viability, T/C [19]: 67.8% | viability, T/C [20]: 38.3% | viability, T/C (second compound 10 µM, first compound 0.316 µM): 28% | viability, T/C (second compound 10 µM, first compound 1 µM): 26.7%
